US8846653B2, “Delta-tocotrienol treatment and prevention of pancreatic cancer” (University of South Florida, priority 2006, dated 2014)

Assays:
Assay type in all cases: cell-based, human
[1] = test system: MIA PaCa2 cells; assay: MTT cell viability, δ-tocotrienol, fluorouracil or combination
Experimental: FIG. 39 is a graph MIA PaCa2 pancreatic cancer cells (3×10^3) treated with indicated concentrations of delta-tocotrienol, fluorouracil (5FU), or a combination of the indicated delta-tocotrienol and 5FU.
The MiaPaCa 2 cells were plated as above into 96 well plates and treated the following day with increasing concentrations of δ-tocotrienol, fluorouracil (5FU), or a combination of δ-tocotrienol and fluorouracil. The cells were collected and analyzed for cell viability using an MTT assay. […] MIA PaCa2 cells (3×10^3) were cultured as described in the Examples above, in 96-well plates and treated the following day with vehicle, δ-tocotrienol, fluorouracil, or a combination of δ-tocotrienol and fluorouracil.

[2] = test system: MIA PaCa-2 cells; assay: Trypan blue cell death, δ-tocotrienol, 5-FU or combination, 24 hours; conditions: MIA PaCa-2, 50 μM each
Experimental: MIA PaCa-2 cells were treated vehicle or an anti-proliferative treatment comprising 50 μM δ-tocotrienol, 50 μM 5-FU, or 50 μM δ-tocotrienol and 50 μM 5-FU for 24 hours. Cells were harvested, fixed, permeablized and stained with trypan blue.

[3] = test system: MiaPaCa2 pancreatic cancer cells; assay: Malignant transformation (Soft Agar) colony formation; conditions: MiaPaCa2, 50 μM, vs vehicle
Experimental: FIG. 20 is a graph showing the effect of tocotrienols on pancreatic cancer malignant transformation (Soft Agar). […] Bars, SE (n=3). *p<0.001 vs. vehicle. **p<0.02 vs. vehicle. ***p<0.05 vs. vehicle. T=tocopherol, T3=tocotrienol.
MiaPaCa2 cells (3×10^3) were cultured as described in the Examples above, in 96-well plates and treated with 50 μM of different tocopherol or tocotrienol.

[4] = test system: MIA PaCa-2 cells (pZWL vector and myrAKT); assay: Cell death (trypan blue) in vector and myrAKT MIA PaCa-2 cells; conditions: MIA PaCa-2 vector vs myr-AKT cells, 24 hours, compared to vehicle
Experimental: FIG. 12 is a graph wherein MIA PaCa-2 cells (pZWL vector and myrAKT) were treated without serum vehicle or δ-tocotrienol (50 μM) for 24 hours, with and without a 10-hour caspase 8/3 inhibitor pretreatment. Cells were also treated with TRAIL as a positive control. Cells were then harvested, fixed, permeablized and stained with trypan blue.
To further identify the role of AKT in the apoptotic pathways noted in Example 2, functional overexpression of CA-AKT was analyzed in Mia-PaCa2 pancreatic cancer cells. MIA PaCa-2 cells were treated with pZWL vector and myrAKT, a retroviral vector encoding myristoylated AKT, with or without serum, vehicle, or δ-tocotrienol (40 or 50 μM) for 24 hours, with and without a 10-hour caspase 8 inhibitor pretreatment. Cells were also treated with TRAIL as a positive control. Cells were then harvested, fixed, permeablized and stained with trypan blue.
The myristoylated AKT rescued δ-tocotrienol suppression PI3K-AKT signaling. The MiaPaCa-2 parental cell lines were stably transfected using constitutively active myristoylated AKT in a pWZL vector construct to generate MiaPaCa-2AKT cells. […] Lastly, pretreatment with caspase 3, 8 and 9 inhibitors rescued tocotrienol induced cell death.

Q: What does the source list for `O=c1[nH]cc(F)c(=O)[nH]1` [5-FU, fluorouracil]?
A: concentration at which the effect became significant vs vehicle [1]: 50 µM; cell death (Trypan Blue) [2]: increased cell death

Q: With `Cc1cc(O)cc2c1O[C@](C)(CCC[C@H](C)CCC[C@H](C)CCCC(C)C)CC2` [δ-tocopherol] as the molecule, how does the “malignant transformation (Soft Agar)” value [3] read?
A: no effect

B1: TRAIL: positive control for cell death (protein, UniProt P50591 1-281, looked up)
Tumor necrosis factor ligand …: MAMMEVQGGPSLGQTCVLIVIFTVLLQSLCVAVTYVYFTNELKQMQDKYSKSGIACFLKEDDSYWDPNDEESMNSPCWQVKWQLRQLVRKMILRTSEETISTVQEKQQNISPLVRERGPQRVAAHITGTRGRSNTLSSPNSKNEKALGRKINSWESSRSGHSFLSNLHLRNGELVIHEKGFYYIYSQTYFRFQEEIKENTKNDKQMVQYIYKYTSYPDPILLMKSARNSCWSKDAEYGLYSIYQGGIFELKENDRIFVSVTNEHLIDMDHEASFFGAFLVG
Q: B1 was tested. Which cell death [4] did it give?
A: comparable to vehicle
